Here are results for three compounds from US7771736B2, “Glyphosate formulations and their use for the inhibition of 5-enolpyruvylshikimate-3-phosphate synthase” (Monsanto Technology LLC, priority 2002, dated 2010).

The conditions of data set [1]: Metal Ion Mg2+; cited from earlier work.
The conditions of data set [2]: Metal Ion Ca2+; cited from earlier work.
A further data set concerns maize EPSPS. As to the kind of experiment: enzyme activity of maize EPSPS (HPLC radioassay, S3P and 14C-PEP) with oxalate or citrate in the presence and absence of glyphosate. The class given is biochemical. The conditions noted are these: for effect on the inhibition of EPSPS by glyphosate (rate of catalytic activity on S3P and PEP): additive with 0, 0.6 or 6 mcM glyphosate, relative rate normalized to zero glyphosate. The method, then:
These examples assessed the enzyme activity of maize EPSPS with increasing concentrations of oxalate (0, 0.06 mcM, 0.3 mcM, 1.5 mcM, 7.5 mcM and 37.5 mcM) in the presence and absence of glyphosate. Three different conditions (0, 0.6 mcM, and 6 mcM glyphosate) were studied. The assay consisted of incubating enzyme (9 mcg/mL final concentration in the assay) with S3P and ^14C-PEP. The conversion of labeled substrate to 5-enol-[^14C]-pyruvylshikimate-3-phosphate was determined by HPLC radioassay.
Initial velocities were calculated by multiplying fractional turnover per unit time by the initial concentration of the labeled substrate. The data are expressed as relative rates of the enzyme, where relative rate is the reaction rate at a given condition normalized to similar reaction with zero glyphosate.

Another data set has as its system different weed species. In words: herbicidal efficacy in whole plants / on different weed species. The class given is in vivo. The conditions noted are these: for enhancement of glyphosate herbicidal efficacy: additive combined with glyphosate, whole plants / weed species.
A further data set deals with Cryptosporidium parvum. The conditions noted are these: cited from earlier work.
A further data set has as its system Plasmodium falciparum. Particulars: Plasmodium falciparum (malaria); cited from earlier work.
The next data set concerns Toxoplasma gondii. Particulars: cited from earlier work.

Where two headings read alike, the source gives them in different places.

Turning to `O=C(O)CC(O)(CC(=O)O)C(=O)O` [Citric acid, citric acid], the “Log K (Binding Constant)” value in data set [1] and in data set [2] was 3.45 throughout. For the same compound, the “effect on the inhibition of EPSPS by glyphosate (rate of catalytic activity on S3P and PEP)” value in the data set with maize EPSPS was “did not have any effect on EPSPS inhibition by glyphosate”. Moreover, in the data set with different weed species, the “enhancement of glyphosate herbicidal efficacy” value is “failed to show enhancement of glyphosate efficacy on different weed species”.

On to `O=C(O)C(=O)O` [Oxalic acid, oxalic acid], for which the “Log K (Binding Constant)” value in data set [1] is on record as 2.76; in data set [2] it was 2.46. For the same compound, the “effect on the inhibition of EPSPS by glyphosate (rate of catalytic activity on S3P and PEP)” value is listed as “enhance the inhibition of EPSPS by glyphosate” with maize EPSPS and “enhanced the enzyme binding of glyphosate” in the data set on maize EPSPS (listed as oxalate). In the data set with maize EPSPS (without glyphosate), the “inhibitory effect on the enzyme on its own” value is “do not have any inhibitory effect on the enzyme on their own”. Further, the “herbicidal property by itself” value with different weed species (additive alone, enzyme studies and whole plant response) is on record as “does not have any herbicidal property”. The “enhancement of glyphosate herbicidal efficacy” value in the data set with different weed species is on record as “enhance the inhibition of EPSPS by glyphosate as well as its herbicidal efficacy in whole plants”.

With `O=C(O)CNCP(=O)(O)O` [glyphosate, N-phosphonomethyl glycine], the “growth inhibition of parasite” value in the data set with Cryptosporidium parvum, in the data set with Plasmodium falciparum and in the data set on Toxoplasma gondii was “growth of these parasites can be inhibited” in each case.
